Here are results for 35 compounds from patent publication US10137122B2, “Kinase inhibitors and methods of use thereof” (priority 2012, dated 2018).

Assay [1] concerns TCF/LEF reporter in HEK293-pBARL cells. The experiment in a line: cells. As to conditions: Homo sapiens.
Protocol: HEK293-pBARL cells were derived from HEK293 cells and they stably expressed a firefly-luciferase reporter gene driven by a promoter containing 12 copies of TCF/LEF binding sequences. These cells were maintained in DMEM and supplemented with 10% FBS and 1% penicillin-streptomycin (Invitrogen). Reporter gene assays were conducted in anti-biotic free media. […] These cells also contained a renilla-luciferase reporter gene driven by the ubiquitous EF1α promoter as a control. HEK293-pBarl reporter cell lines were seeded into 384-well culture plates (Corning) at 6000 cells/well. 24 hours after plating, cells were treated overnight with relevant compounds and assayed using DualGlo assay kit (Promega). Luminescent intensities were read by EnVision (PerkinElmer, Waltham, Mass.). Firefly luciferase intensity is normalized by renilla luciferase intensity.
Cells were cultured in 384 well plates to appropriate density (40 μl total plating volume). 24 hours after plating, cells were treated with 100 nl compounds. 24 hours after incubation with compounds (48 hours after plating), assay reagents were prepared by mixing Luciferase Assay solution with Luciferase substrate and Stop & Glo solution to Stop & Glo substrate (extra reagents can be aliquoted and frozen for future use and are stable for at least one freeze/thaw cycle). […] The plate was spun down and 10 minutes were allowed for signal stabilization. Luciferase signal on the Perkin Elmer EnVision using the following parameters: Distance between plate & detector (mm)=0.2; Measurement time(s)=0.1; Glow (CT2) correction factor=0. Once the initial data is secure, a volume of Stop & Glo was added equal to each well equal to the volume of Luciferase reagent added above (If 10 μl Luciferase Reagent was added, 10 μl Stop & Glo was also added). The plate was spun down and 10 minutes were allowed for signal stabilization. The plate was read on the EnVision using the same parameters detailed above.
Assay [2] deals with phospho-Tau (Ser199) in SH-SY5Y cells. As to the kind of experiment: Tau phosphorylation assay (phospho-Tau Ser199 ELISA). Format: cell-based, human. Particulars: Homo sapiens, SH-SY5Y, read-out: p-Tau Inhibition ELISA EC50 SH-SY5Y.
Protocol: Tau Phosphorylation and Total Tau Assay
SH-SY5Y cells were maintained in DMEM supplemented with 10% heat-inactivated FBS and 1% penicillin-streptomycin (Invitrogen) unless otherwise stated. ELISA kits for phospho-Tau (Ser199) and total Tau detection were purchased from Invitrogen (KHB0041, and KHB7041 respectively). Briefly, SH-SY5Y cells were seeded at 50,000 cells/200 μL/well in 96 well plates and after overnight incubation, treated with various doses of chemical compounds at 0.2 μL/well. The next day cells were washed with PBS twice before being lysed in 100 μL Lysis buffer/well. 50 μL of cell lysate of each sample was transferred to an ELISA vial coated with the capture antibody, and the mixture was incubated at room temperature for 2 hours, before the supernatant was aspired, and each vial washed four times. 100 μL of detection antibody was then added to each well, incubated for 1 hour, and then washed four times. […] Data were scaled using the positive and neutral controls and fitted for IC50.
A standard protocol using an immunoassay kit to quantify total Tau protein and phospho-Tau (Ser199) protein in SH-SY5Y human neuroblastoma cells was employed. Human Tau (Total) ELISA kit (#KHB0041) and human phosphor-Tau (Ser199) ELISA kit were purchased from Invitrogen (#KHB7041)
50,000 cells were seeded in 200 μl per well in cell culture media (250,000 cells/ml). Cells were incubated overnight @37° C. Cells were induced with appropriate doses of inhibitors and incubated for approximately 24 hrs @37° C. Cell lysates were harvested by washing cells once with cold PBS and adding 100 μl cold lysis buffer and pipette up and down vigorously. Lysate was transferred to 96 well PCR plate and centrifuged at 4,000 rpm for 20 minutes at 4° C.
Well strips were warmed and inserted into the frame. 100μ of standard diluent buffer were loaded into ZERO wells, and 100 ul of each standard concentrations (both total Tau and pTau) were loaded into wells in duplicate. Samples were loaded to each well that would be analyzed for total Tau, 85 μl standard diluent buffer and 15 μl cell lysate were added. To each well that will be analyzed for pTau (Ser199) 50 μl standard diluent buffer+50 μl cell lysate were added. Plates were tapped gently on the side to mix. Certain wells were left empty for chromogen blank. Plates were covered and incubated for 2 hours at room temperature. Wells were aspirated 4 times (400 μl diluted wash buffer, left for 30 seconds, aspirated all wells; alternatively used automated plate washer and programmed in a 30 second hold between each cycle). 100 μl of detection antibody solution were added to each well except chromogen blanks. Anti-total Tau was added to wells being analyzed for total Tau, anti-pTau (Ser199) was added to wells being analyzed for pTau (Ser199), and plates were tapped gently on the side to mix. Plates were covered and incubated for 1 hour at room temperature, then wells were aspirated and washed 4 times as described above. 100 μl of anti-rabbit IgG HRP working solution (prepared ahead) were added to each well except chromogen blanks, and plates were covered and incubated for 30 minutes at room temperature, then wells were aspirated and washed 4 times as described above. 100 μl of stabilized chromogen were added to each well (the liquid turned blue). Plates were incubates for 30 minutes at room temperature in the dark, then 100 μl of stop solution were added to each well, and plates were tapped gently on the side to mix. Absorbance of each well was read at 450 nm (within 2 hours of adding stop solution).
Assay [3] concerns β-catenin nuclear translocation in U2-OS cells. As to the kind of experiment: β-Catenin nuclear localization assay. As to conditions: Homo sapiens, U2OS, read-out: beta-Catenin translocation EC50. In kind it is cell-based.
Setting [4] is: HEK293, read-out: TCF/LEF EC50 (μM).
The mark [5] stands for this setting: HEK293, read-out: TCF/LEF EC50 (μM), HEK293 reporter cells.

Where two headings read alike, the source gives them in different places.

`Cc1[nH]nc2c1C(c1ccc(Cl)s1)C1=C(CC(C)(C)CC1=O)N2` (centres unmarked) [Compound 9, 4-(5-chlorothiophen-2-yl)-3,7,7-trimethyl-6,7,8,9-tetrahydro-1H-pyrazolo[3,4-b]quinolin-5(4H)-one]: the EC50 in assay [1] (setting [4]) was greater than 25 µM.

Consider `Cc1[nH]nc2c1C(c1cccc(C#N)c1)C1=C(CC(C)(C)CC1=O)N2` (centres unmarked) [Compound 33, 3-(3,7,7-trimethyl-5-oxo-4,5,6,7,8,9-hexahydro-2H-pyrazolo[3,4-b]quinolin-4-yl)benzonitrile], for which the EC50 in assay [2] was 2.5 µM; in assay [1] (setting [4]) it was 5.16 µM; in assay [3], 12 µM.

Consider `Cc1[nH]nc2c1C(c1ccc(C(F)(F)F)cc1)C1=C(CC(C)(C)CC1=O)N2` (centres unmarked) [Compound 31, 3,7,7-trimethyl-4-(4-(trifluoromethyl)phenyl)-6,7,8,9-tetrahydro-2H-pyrazolo[3,4-b]quinolin-5(4H)-one], for which the EC50 in assay [1] (setting [4]) is greater than 25 µM; in assay [3], greater than 50 µM.

Turning to `CC1(C)CC(=O)C2=C(C1)Nc1n[nH]c(Br)c1C2(C)c1ccccc1` (centres unmarked) [Compound 111], the EC50 in assay [2] amounted to 2.98 µM.

Consider `Cc1ccc(C2C3=C(CC(C)(C)CC3=O)Nc3n[nH]c(C)c32)cc1` (centres unmarked) [Compound 19, 3,7,7-trimethyl-4-(p-tolyl)-6,7,8,9-tetrahydro-1H-pyrazolo[3,4-b]quinolin-5(4H)-one], for which the EC50 in assay [1] (setting [4]) was greater than 25 µM.

Turning to `Cc1[nH]nc2c1C(c1ccccc1F)C1=C(CC(C)(C)CC1=O)N2` (centres unmarked) [Compound 10, 4-(2-fluorophenyl)-3,7,7-trimethyl-6,7,8,9-tetrahydro-1H-pyrazolo[3,4-b]quinolin-5(4H)-one], the EC50 in assay [1] (setting [4]) is 12.7 µM.

As for `Cc1[nH]nc2c1C(c1ccc3c(c1)OCO3)C1=C(CC(C)(C)CC1=O)N2` (centres unmarked) [Compound 26, 4-(benzo[d][1,3]dioxol-5-yl)-3,7,7-trimethyl-6,7,8,9-tetrahydro-1H-pyrazolo[3,4-b]quinolin-5(4H)-one], in assay [1] (setting [4]), the EC50 was greater than 25 µM.

As for `Cc1[nH]nc2c1C(c1cccc(F)c1)C1=C(CC(C)(C)CC1=O)N2` (centres unmarked) [Compound 11, 4-(3-fluorophenyl)-3,7,7-trimethyl-6,7,8,9-tetrahydro-1H-pyrazolo[3,4-b]quinolin-5(4H)-one], in assay [1] (setting [4]), the EC50 was greater than 25 µM.

Regarding `Cc1[nH]nc2c1C(c1ccc(C#N)cc1)C1=C(CC(C)(C)CC1=O)N2` (centres unmarked) [Compound 34, 4-(3,7,7-trimethyl-5-oxo-4,5,6,7,8,9-hexahydro-2H-pyrazolo[3,4-b]quinolin-4-yl)benzonitrile], the EC50 in assay [1] (setting [4]) is greater than 25 µM.

Take `Cc1[nH]nc2c1C(c1ccc(F)cc1Cl)C1=C(CC(C)(C)CC1=O)N2` (centres unmarked) [Compound 35, 4-(2-chloro-4-fluorophenyl)-3,7,7-trimethyl-6,7,8,9-tetrahydro-1H-pyrazolo[3,4-b]quinolin-5(4H)-one]: the EC50 in assay [1] (setting [4]) was greater than 25 µM.

Regarding `Cc1[nH]nc2c1C(c1ccn[nH]1)C1=C(CC(C)(C)CC1=O)N2` (centres unmarked) [Compound 40, 3,7,7-trimethyl-4-(1H-pyrazol-5-yl)-6,7,8,9-tetrahydro-1H-pyrazolo[3,4-b]quinolin-5(4H)-one], the EC50 in assay [1] (setting [4]) is greater than 25 µM.

With `Cc1[nH]nc2c1C(c1ccsc1)C1=C(CC(C)(C)CC1=O)N2` (centres unmarked) [Compound 8, 3,7,7-trimethyl-4-(thiophen-3-yl)-6,7,8,9-tetrahydro-1H-pyrazolo[3,4-b]quinolin-5(4H)-one], the EC50 in assay [1] (setting [4]) is greater than 25 µM.

As to `Cc1[nH]nc2c1C(c1ccccn1)C1=C(CC(C)(C)CC1=O)N2` (centres unmarked) [Compound 36, 3,7,7-trimethyl-4-(pyridin-2-yl)-6,7,8,9-tetrahydro-1H-pyrazolo[3,4-b]quinolin-5(4H)-one], the EC50 in assay [1] (setting [4]) is greater than 25 µM.

As for `Cc1[nH]nc2c1C(c1cccnc1)C1=C(CC(C)(C)CC1=O)N2` (centres unmarked) [Compound 37, 3,7,7-trimethyl-4-(pyridin-3-yl)-6,7,8,9-tetrahydro-1H-pyrazolo[3,4-b]quinolin-5(4H)-one], the EC50 in assay [1] (setting [4]) is greater than 25 µM.

For `CC1(C)CC(=O)C2=C(C1)Nc1n[nH]c(C(F)(F)F)c1[C@@H]2c1ccccc1C(F)(F)F` (stereo in doubt) [Compound 72, 7,7-dimethyl-3-(trifluoromethyl)-4-(2-(trifluoromethyl)phenyl)-6,7,8,9-tetrahydro-2H-pyrazolo[3,4-b]quinolin-5(4H)-one], the EC50 in assay [2] came out at 0.426 µM; in assay [1] (setting [4]) it was 1.49 µM.

For the compound `COc1ccccc1C1C2=C(CC(C)(C)CC2=O)Nc2n[nH]c(C)c21` (racemic) [Compound 20, 4-(2-methoxyphenyl)-3,7,7-trimethyl-6,7,8,9-tetrahydro-1H-pyrazolo[3,4-b]quinolin-5(4H)-one], the EC50 was found to be 9.14 µM in assay [2] and 17.9 µM in assay [1] (setting [4]).

As to `COc1ccc(C2C3=C(CC(C)(C)CC3=O)Nc3n[nH]c(C)c32)cc1` (centres unmarked) [Compound 24, 4-(4-methoxyphenyl)-3,7,7-trimethyl-6,7,8,9-tetrahydro-1H-pyrazolo[3,4-b]quinolin-5(4H)-one], the EC50 in assay [1] (setting [4]) was greater than 25 µM.

Regarding `Cc1[nH]nc2c1C(c1cccs1)C1=C(CC(C)(C)CC1=O)N2` (racemic) [Compound 5, 3,7,7-trimethyl-4-(thiophen-2-yl)-6,7,8,9-tetrahydro-1H-pyrazolo[3,4-b]quinolin-5(4H)-one], the EC50 in assay [1] (setting [4]) is greater than 25 µM.

In the case of `Cc1[nH]nc2c1C(C)(c1ccccc1)C1=C(CC(C)(C)CC1=O)N2` (centres unmarked) [Compound 67, 3,4,7,7-tetramethyl-4-phenyl-6,7,8,9-tetrahydro-2H-pyrazolo[3,4-b]quinolin-5(4H)-one], the EC50 in assay [1] (setting [4]) is greater than 25 µM.

Consider `CC1(C)CC(=O)C2=C(C1)Nc1n[nH]c(Cl)c1C2(C)c1ccccc1` (centres unmarked) [Compound 110], for which the EC50 in assay [2] turned out to be 4.55 µM.

As for `CCC1(c2ccccc2)C2=C(CC(C)(C)CC2=O)Nc2n[nH]c(C)c21` (racemic) [Compound 89, 9-ethyl-1,6,6-trimethyl-9-phenyl-5,6,7,9-tetrahydro-2H-pyrazolo[3,4-b]quinolin-8(4H)-one], the EC50 in assay [2] was 22.2 µM.

In the case of `COC(=O)c1[nH]nc2c1C(C)(c1ccccc1)C1=C(CC(C)(C)CC1=O)N2` (centres unmarked) [Compound 104], in assay [2], the EC50 amounted to 4.48 µM.

Turning to `Cc1[nH]nc2c1[C@@H](c1ccccc1C#N)C1=C(CC(C)(C)CC1=O)N2` [Compound 32, 2-(3,7,7-trimethyl-5-oxo-4,5,6,7,8,9-hexahydro-2H-pyrazolo[3,4-b]quinolin-4-yl)benzonitrile], the EC50 in assay [1] (setting [4]) was 23.4 µM.

For `Cc1[nH]nc2c1C(c1ccccc1)(C(F)(F)F)C1=C(CC(C)(C)CC1=O)N2` (centres unmarked) [Compound 92, 1,6,6-trimethyl-9-phenyl-9-(trifluoromethyl)-5,6,7,9-tetrahydro-2H-pyrazolo[3,4-b]quinolin-8(4H)-one], in assay [2], the EC50 amounted to 20.4 µM.

Turning to `Cc1[nH]nc2c1C(c1ccc(Br)cn1)C1=C(CC(C)(C)CC1=O)N2` (centres unmarked) [Compound 39, 4-(5-bromopyridin-2-yl)-3,7,7-trimethyl-6,7,8,9-tetrahydro-1H-pyrazolo[3,4-b]quinolin-5(4H)-one], the EC50 in assay [1] (setting [4]) was greater than 25 µM.

As for `Cc1[nH]nc2c1C(c1cccc(Cl)c1)C1=C(CC(C)(C)CC1=O)N2` (centres unmarked) [Compound 14, 4-(3-chlorophenyl)-3,7,7-trimethyl-6,7,8,9-tetrahydro-1H-pyrazolo[3,4-b]quinolin-5(4H)-one], the EC50 in assay [1] (setting [4]) was determined as 31.3 µM.

With `COc1ccccc1C1C2=C(CC(C)(C)CC2=O)Nc2n[nH]c(C(F)(F)F)c21` (racemic) [Compound 53, 4-(2-methoxyphenyl)-7,7-dimethyl-3-(trifluoromethyl)-6,7,8,9-tetrahydro-2H-pyrazolo[3,4-b]quinolin-5(4H)-one], the figures for the EC50 in assay [1] (setting [5]) and in assay [3] were 16.9 µM and 14 µM, respectively.

For the compound `CC1(C)CC(=O)C2=C(C1)Nc1n[nH]c(C(F)(F)F)c1[C@H]2c1ccccc1C(F)(F)F` (stereo in doubt) [Compound 73, 7,7-dimethyl-3-(trifluoromethyl)-4-(2-(trifluoromethyl)phenyl)-6,7,8,9-tetrahydro-2H-pyrazolo[3,4-b]quinolin-5(4H)-one], the EC50 in assay [2] is 22 µM; in assay [1] (setting [4]) it was greater than 25 µM.

With `COc1ccccc1[C@H]1C2=C(CC(C)(C)CC2=O)Nc2n[nH]c(C)c21` [Compound 21, 4-(2-methoxyphenyl)-3,7,7-trimethyl-6,7,8,9-tetrahydro-1H-pyrazolo[3,4-b]quinolin-5(4H)-one], the EC50 in assay [2] is greater than 30 µM; in assay [1] (setting [4]) it was greater than 25 µM.

Take `Cc1[nH]nc2c1[C@H](c1ccccc1Br)C1=C(CC(C)(C)CC1=O)N2` (racemic) [Compound 80, 4-(2-bromophenyl)-3,7,7-trimethyl-6,7,8,9-tetrahydro-2H-pyrazolo[3,4-b]quinolin-5(4H)-one]: the EC50 in assay [1] (setting [4]) was 5.63 µM.

Consider `COc1cccc(C2C3=C(CC(C)(C)CC3=O)Nc3n[nH]c(C)c32)c1` (centres unmarked) [Compound 23, 4-(3-methoxyphenyl)-3,7,7-trimethyl-6,7,8,9-tetrahydro-1H-pyrazolo[3,4-b]quinolin-5(4H)-one], for which the EC50 in assay [1] (setting [4]) is greater than 25 µM.

With `Cc1[nH]nc2c1C(c1ccc(Cl)cc1)C1=C(CC(C)(C)CC1=O)N2` (centres unmarked) [Compound 15, 4-(4-chlorophenyl)-3,7,7-trimethyl-6,7,8,9-tetrahydro-1H-pyrazolo[3,4-b]quinolin-5(4H)-one], the EC50 in assay [1] (setting [4]) is greater than 25 µM.

Consider `Cc1cccc(C2C3=C(CC(C)(C)CC3=O)Nc3n[nH]c(C)c32)c1` (centres unmarked) [Compound 18, 3,7,7-trimethyl-4-(m-tolyl)-6,7,8,9-tetrahydro-2H-pyrazolo[3,4-b]quinolin-5(4H)-one], for which the EC50 in assay [1] (setting [4]) is greater than 25 µM; in assay [3] it was greater than 50 µM.

On to `Cc1[nH]nc2c1C(c1ccc(F)cc1)C1=C(CC(C)(C)CC1=O)N2` (centres unmarked) [Compound 12, 4-(4-fluorophenyl)-3,7,7-trimethyl-6,7,8,9-tetrahydro-1H-pyrazolo[3,4-b]quinolin-5(4H)-one], for which the EC50 in assay [1] (setting [4]) was greater than 25 µM.

On to `Cc1[nH]nc2c1C(c1ccncc1)C1=C(CC(C)(C)CC1=O)N2` (centres unmarked) [Compound 38, 3,7,7-trimethyl-4-(pyridin-4-yl)-6,7,8,9-tetrahydro-1H-pyrazolo[3,4-b]quinolin-5(4H)-one], for which the EC50 in assay [1] (setting [5]) was greater than 25 µM.
